How the values were obtained:
lipoxygenase = target: T1, lipoxygenase (Rattus norvegicus, UniProt P12527); assay: LTB4 release from rat polymorphonuclear leucocytes (PMNL) after calcium ionophore A 23187, by HPLC (lipoxygenase inhibition); assay type: cell-based, rat (Wistar)
T1 construct: Polymorphonuclear leucocytes from rats (PMNL) were obtained from the peritoneal space in Wistar rats; endogenous in cells; host or cells: peritoneal polymorphonuclear leucocytes of Wistar rats (elicited with sodium caseinate)
T1 sequence (P12527 1-673): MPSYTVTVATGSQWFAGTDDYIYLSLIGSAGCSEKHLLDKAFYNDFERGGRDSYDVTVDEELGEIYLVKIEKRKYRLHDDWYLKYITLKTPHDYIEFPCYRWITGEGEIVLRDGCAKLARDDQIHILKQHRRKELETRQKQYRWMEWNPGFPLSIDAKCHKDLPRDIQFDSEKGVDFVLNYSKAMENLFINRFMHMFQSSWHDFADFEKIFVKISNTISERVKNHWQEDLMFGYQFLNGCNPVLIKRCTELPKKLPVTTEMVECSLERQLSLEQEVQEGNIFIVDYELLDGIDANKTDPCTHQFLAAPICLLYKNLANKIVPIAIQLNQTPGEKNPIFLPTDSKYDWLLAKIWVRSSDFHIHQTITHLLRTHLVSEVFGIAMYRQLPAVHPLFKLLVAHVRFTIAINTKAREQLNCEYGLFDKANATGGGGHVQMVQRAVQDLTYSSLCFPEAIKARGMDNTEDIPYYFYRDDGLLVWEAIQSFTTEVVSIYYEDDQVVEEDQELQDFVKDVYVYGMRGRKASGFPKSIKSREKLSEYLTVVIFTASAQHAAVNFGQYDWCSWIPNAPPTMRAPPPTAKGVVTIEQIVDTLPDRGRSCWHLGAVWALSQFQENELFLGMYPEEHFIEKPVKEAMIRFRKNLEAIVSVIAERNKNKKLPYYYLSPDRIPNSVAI
Description: The release of LTB4 on polymorphonuclear granulocytes after addition of substances and calcium ionophor was determined by means of HPLC as a measure of the lipoxygenase inhibition.
The combined ether phases were washed with 4 ml of water (double distilled), dried while gassing with nitrogen and taken up in 80 μl of methanol.
20 μl of each of the samples thus prepared were applied to a pre-packed column (Nucleosil, type 7.5 C 18M 4×25 mm) and chromatographed at a flow rate of 1 ml/min (Kontron pump system 600), methanol, H2 O and acetic acid (75:25:0.01) being used as the mobile phase. Detection was at 280 nm (Uvicon 720 LC). The formation of the metabolite was quantified with the aid of the internal standard PG B2 as a quotient of the area integrals (Shimadzu C-R1B) of LTB4 to PGB2 and an inhibition was determined as a percentage of the controls.

leucocyte migration = assay: Inhibition of leucocyte migration, small sponge impregnated with active compound under the skin on the backs of rats; assay type: in vivo; conditions: rat, local, 10 mg/rat, impregnated sponge under skin of back
From the text: The 1H-pyrido-[2,3-b][1,4]-thiazines according to the invention also have an in vivo action.
The action of a 1H-pyrido-[2,3-b][1,4]-thiazine after local administration by insertion of a small sponge impregnated with active compound under the skin on the backs of rats may be mentioned as examples.

Inhibition of leukotriene B4 biosynthesis, % inhibition (lipoxygenase; at 1·10^-5 (M/1), rat PMNL) [%]	Compound	IC50 (lipoxygenase) [nM]	Inhibition of Leucocyte migration (control = 0%) (leucocyte migration) [%]
42	O=C1CCCC2=C1Sc1ncccc1N2	–	–
–	CCOC(=O)C1=CNc2cccnc2S1 [Example 1, 3-Ethoxycarbonyl-1H-pyrido[2,3-b][1,4]-thiazine]	460	50
–	COC(=O)C1=CNc2cccnc2S1 [Example 2]	5000	–
–	CCCCOC(=O)C1=CNc2cccnc2S1 [Example 4]	55	–
–	CCOC(=O)C1=CN(CC#N)c2cccnc2S1 [Example 19]	2600	–

— US4861878A, “1H-pyrido-(2,3-b) (1,4)-thiazines” (Bayer Aktiengesellschaft, priority 1985, dated 1989)
